Patent US12286424B2, “Small molecule inhibitors of galectin-3” (BRISTOL-MYERS SQUIBB COMPANY, priority 2020, dated 2025)
Like-named read-outs stand apart in the source and are kept apart here.

Biological target: T1, hGalectin-3 (Homo sapiens, UniProt P17931)
T1 construct: made in house
Experiment: Gal-3 ELISA assay (hGalectin-3 neutralization binding to asialofetuin)

[1] = biotin-tagged hGalectin-3 15 nM, ASF-coated plate, read-out: hGal3 IC50

T1 sequence (P17931 whole entry): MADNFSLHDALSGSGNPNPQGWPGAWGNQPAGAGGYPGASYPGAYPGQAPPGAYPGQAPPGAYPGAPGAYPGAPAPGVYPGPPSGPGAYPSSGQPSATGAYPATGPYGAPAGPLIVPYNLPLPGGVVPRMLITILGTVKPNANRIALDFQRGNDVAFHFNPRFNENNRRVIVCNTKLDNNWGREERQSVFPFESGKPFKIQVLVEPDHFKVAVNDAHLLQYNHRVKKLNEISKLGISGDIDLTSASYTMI

IC50 [1] [nM]	Compound	other results
390	O=C([C@@H]1O[C@H](CO)[C@H](O)[C@H](n2cc(-c3cccc(F)c3)nn2)[C@H]1O)N1CCN(c2ccc3[nH]c(=O)[nH]c3c2)CC1 [Example 9, 5-(4-((2R,3R,4S,5R,6R)-4-(4-(3-fluorophenyl)-1H-1,2,3-triazol-1-yl)-3,5-dihydroxy-6-(hydroxymethyl)tetrahydro-2H-pyran-2-carbonyl)piperazin-1-yl)-1H-benzo[d]imidazol-2(3H)-one]	
250	COc1ccc(N2C[C@@H]3C[C@H]2CN3C(=O)[C@@H]2O[C@H](CO)[C@H](O)[C@H](n3cc(-c4cccc(F)c4)nn3)[C@H]2O)cc1 [Example 19, ((2R,3R,4S,5R,6R)-4-(4-(3-fluorophenyl)-1H-1,2,3-triazol-1-yl)-3,5-dihydroxy-6-(hydroxymethyl)tetrahydro-2H-pyran-2-yl)((1S,4S)-5-(4-methoxyphenyl)-2,5-diazabicyclo[2.2.1]heptan-2-yl)methanone]	
	CO[C@@H]1[C@@H](n2cc(-c3cccc(F)c3)nn2)[C@@H](O)[C@@H](CO)O[C@H]1C(=O)N1C[C@H]2C[C@@H]1CN2c1ccc2c(c1)OCO2 [Example 17]	IC50 (Table 2, read-out: hGal-3 IC50): 311 nM
	O=C([C@@H]1O[C@H](CO)[C@H](O)[C@H](n2cc(-c3cccc(F)c3)nn2)[C@H]1O)N1CCN(c2ccc3[nH]ccc3c2)CC1 [Example 3]	IC50 (Table 1, read-out: hGal-3 IC50): 480 nM
350	COc1ccc(N2C[C@@H]3C[C@H]2CN3C(=O)C[C@@H]2O[C@H](CO)[C@H](O)[C@H](n3cc(-c4cccc(F)c4)nn3)[C@H]2O)cc1 [Example 27, 2-((2S,3R,4R,5R,6R)-4-(4-(3-fluorophenyl)-1H-1,2,3-triazol-1-yl)-3,5-dihydroxy-6-(hydroxymethyl)tetrahydro-2H-pyran-2-yl)-1-((1S,4S)-5-(4-methoxyphenyl)-2,5-diazabicyclo[2.2.1]heptan-2-yl)ethanone]	
140	O=C([C@@H]1O[C@H](CO)[C@H](O)[C@H](n2cc(-c3cccc(F)c3)nn2)[C@H]1O)N1CCN(c2ccc(O)cc2)C(CO)C1 (single isomer, unassigned) [Example 35b]	
420	CS(=O)(=O)Nc1ccc(N2C[C@@H]3C[C@H]2CN3C(=O)[C@@H]2O[C@H](CO)[C@H](O)[C@H](n3cc(-c4cccc(F)c4)nn3)[C@H]2O)cn1 [Example 42]	
450	O=C([C@@H]1O[C@H](CO)[C@H](O)[C@H](n2cc(-c3cccc(F)c3)nn2)[C@H]1O)N1CCN(c2ccc(O)cc2)CC1CO (single isomer, unassigned) [Example 34b]	
250	COc1ccc(N2C[C@@H]3C[C@H]2CN3C[C@@H]2O[C@H](CO)[C@H](O)[C@H](n3cc(-c4cccc(F)c4)nn3)[C@H]2O)cc1 [Example 29, (2R,3R,4R,5R,6S)-4-(4-(3-fluorophenyl)-1H-1,2,3-triazol-1-yl)-2-(hydroxymethyl)-6-(((1S,4S)-5-(4-methoxyphenyl)-2,5-diazabicyclo[2.2.1]heptan-2-yl)methyl)tetrahydro-2H-pyran-3,5-diol]	
	COc1ccc(N2C[C@H]3C[C@@H]2CN3C(=O)[C@@H]2O[C@H](CO)[C@H](O)[C@H](n3cc(-c4cccc(F)c4)nn3)[C@H]2OC)cc1 [Example 16]	IC50 (Table 2, read-out: hGal-3 IC50): 530 nM
300	O=C([C@@H]1O[C@H](CO)[C@H](O)[C@H](n2cc(-c3cccc(F)c3)nn2)[C@H]1O)N1C[C@@H]2C[C@H]1CN2c1ccc2[nH]ccc2c1 [Example 26, ((1S,4S)-5-(1H-indol-5-yl)-2,5-diazabicyclo[2.2.1]heptan-2-yl)((2R,3R,4S,5R,6R)-4-(4-(3-fluorophenyl)-1H-1,2,3-triazol-1-yl)-3,5-dihydroxy-6-(hydroxymethyl)tetrahydro-2H-pyran-2-yl)methanone]	
500	O=C(Nc1ccc(O)cc1)N1C[C@@H]2C[C@H]1CN2C(=O)[C@@H]1O[C@H](CO)[C@H](O)[C@H](n2cc(-c3cccc(F)c3)nn2)[C@H]1O [Example 30, (1S, 4S)-5-((2R, 3R, 4S, 5R, 6R)-4-(4-(3-fluorophenyl)-1H-1,2,3-triazol-1-yl)-3,5-dihydroxy-6-(hydroxymethyl)tetrahydro-2H-pyran-2-carbonyl)-N-(4-hydroxyphenyl)-2,5-diazabicyclo[2.2.1]heptane-2-carboxamide]	
150	CO[C@@H]1[C@@H](n2cc(-c3cccc(F)c3)nn2)[C@@H](O)[C@@H](CO)O[C@H]1C(=O)N1CCN(c2ccc(O)cc2)CC1 [Example 13, ((2R,3R,4S,5R,6R)-4-(4-(3-fluorophenyl)-1H-1,2,3-triazol-1-yl)-5-hydroxy-6-(hydroxymethyl)-3-methoxytetrahydro-2H-pyran-2-yl)(4-(4-hydroxyphenyl)piperazin-1-yl)methanone]	
	O=C([C@@H]1O[C@H](CO)[C@H](O)[C@H](n2cc(-c3cccc(F)c3)nn2)[C@H]1O)N1C[C@@H]2C[C@H]1CN2c1ccc2c(c1)OCO2 [Example 20]	IC50 (Table 3, read-out: hGal-3 IC50): 249 nM
470	CO[C@@H]1[C@@H](n2cc(-c3cccc(F)c3)nn2)[C@@H](O)[C@@H](CO)O[C@H]1C(=O)N1CCN(c2ccc(O)cn2)CC1 [Example 12, ((2R, 3R, 4S, 5R, 6R)-4-(4-(3-fluorophenyl)-1H-1,2,3-triazol-1-yl)-5-hydroxy-6-(hydroxymethyl)-3-methoxytetrahydro-2H-pyran-2-yl)(4-(5-hydroxypyridin-2-yl)piperazin-1-yl) methanone]	
	COc1cc(N2CCN(C(=O)[C@@H]3O[C@H](CO)[C@H](O)[C@H](n4cc(-c5cccc(F)c5)nn4)[C@H]3O)CC2)ccc1O [Example 5]	IC50 (Table 1, read-out: hGal-3 IC50): 360 nM
720	CS(=O)(=O)Nc1ccc(N2C[C@@H]3C[C@H]2CN3C(=O)[C@@H]2O[C@H](CO)[C@H](O)[C@H](n3cc(-c4cccc(F)c4)nn3)[C@H]2O)nc1 [Example 41, N-(6-((1S,4S)-5-((2R,3R,4S,5R,6R)-4-(4-(3-fluorophenyl)-1H-1,2,3-triazol-1-yl)-3,5-dihydroxy-6-(hydroxymethyl)tetrahydro-2H-pyran-2-carbonyl)-2,5-diazabicyclo[2.2.1]heptan-2-yl)pyridin-3-yl)methanesulfonamide]	
590	COC(=O)Nc1ccc(N2C[C@@H]3C[C@H]2CN3C(=O)[C@@H]2O[C@H](CO)[C@H](O)[C@H](n3cc(-c4cccc(F)c4)nn3)[C@H]2O)cc1 [Example 23, methyl (4-((1S,4S)-5-((2R,3R,4S,5R,6R)-4-(4-(3-fluorophenyl)-1H-1,2,3-triazol-1-yl)-3,5-dihydroxy-6-(hydroxymethyl)tetrahydro-2H-pyran-2-carbonyl)-2,5-diazabicyclo[2.2.1]heptan-2-yl)phenyl)carbamate]	
	CO[C@@H]1[C@@H](n2cc(-c3cccc(F)c3)nn2)[C@@H](O)[C@@H](CO)O[C@H]1C(=O)N1CCN(c2ccc3c(ccn3C)c2)CC1 [Example 14]	IC50 (Table 2, read-out: hGal-3 IC50): 410 nM
	O=C([C@@H]1O[C@H](CO)[C@H](O)[C@H](n2cc(-c3cccc(F)c3)nn2)[C@H]1O)N1CCN(c2ncc(O)cn2)CC1 [Example 4]	IC50 (Table 1, read-out: hGal-3 IC50): 850 nM
	Cn1ccc2cc(N3CCN(C(=O)[C@@H]4O[C@H](CO)[C@H](O)[C@H](n5cc(-c6cccc(F)c6)nn5)[C@H]4O)CC3)ccc21 [Example 6]	IC50 (Table 1, read-out: hGal-3 IC50): 420 nM
1300	O=C([C@@H]1O[C@H](CO)[C@H](O)[C@H](n2cc(-c3cccc(F)c3)nn2)[C@H]1O)N1CCN(c2ccc(O)cc2)CC1CO (single isomer, unassigned) [Example 34a]	
900	O=C([C@@H]1O[C@H](CO)[C@H](O)[C@H](n2cc(-c3cccc(F)c3)nn2)[C@H]1O)N1C[C@@H]2C[C@H]1CN2c1ccc(O)cc1 [Example 25, ((2R,3R,4S,5R,6R)-4-(4-(3-fluorophenyl)-1H-1,2,3-triazol-1-yl)-3,5-dihydroxy-6-(hydroxymethyl)tetrahydro-2H-pyran-2-yl)((1S,4S)-5-(4-hydroxyphenyl)-2,5-diazabicyclo[2.2.1]heptan-2-yl)methanone]	
	COc1ccc(OC)c(N2CC3CC2CN3C(=O)C2OC(CO)C(O)C(n3cc(-c4cccc(F)c4)nn3)C2O)c1 (centres unmarked) [Example 21]	IC50 (Table 3, read-out: hGal-3 IC50): 962 nM
480	O=C([C@@H]1O[C@H](CO)[C@H](O)[C@H](n2cc(-c3cccc(F)c3)nn2)[C@H]1O)N1CCCN(c2ccc(O)cc2)CC1 [Example 33, ((2R, 3R, 4S, 5R, 6R)-4-(4-(3-fluorophenyl)-1H-1,2,3-triazol-1-yl)-3,5-dihydroxy-6-(hydroxymethyl)tetrahydro-2H-pyran-2-yl)(4-(4-hydroxyphenyl)-1,4-diazepan-1-yl)methanone]	
940	OCC1CN(C[C@@H]2O[C@H](CO)[C@H](O)[C@H](n3cc(-c4cccc(F)c4)nn3)[C@H]2O)CCN1c1ccc(O)cc1 (single isomer, unassigned) [Example 40a]	
680	CS(=O)(=O)Nc1ccc(N2C[C@@H]3C[C@H]2CN3C(=O)[C@@H]2O[C@H](CO)[C@H](O)[C@H](n3cc(-c4cccc(F)c4)nn3)[C@H]2O)cc1 [Example 24, N-(4-((1S,4S)-5-((2R,3R,4S,5R,6R)-4-(4-(3-fluorophenyl)-1H-1,2,3-triazol-1-yl)-3,5-dihydroxy-6-(hydroxymethyl)tetrahydro-2H-pyran-2-carbonyl)-2,5-diazabicyclo[2.2.1]heptan-2-yl)phenyl)methanesulfonamide]	
350	C[C@@H]1CN(c2ccc(O)cc2)[C@@H](C)CN1C(=O)[C@@H]1O[C@H](CO)[C@H](O)[C@H](n2cc(-c3cccc(F)c3)nn2)[C@H]1O (single isomer, unassigned) [Example 37a]	
760	CS(=O)(=O)Nc1ccc(N2CCN(C(=O)[C@@H]3O[C@H](CO)[C@H](O)[C@H](n4cc(-c5cccc(F)c5)nn4)[C@H]3O)CC2)nc1 [Example 8, N-(6-(4-((2R,3R,4S,5R,6R)-4-(4-(3-fluorophenyl)-1H-1,2,3-triazol-1-yl)-3,5-dihydroxy-6-(hydroxymethyl)tetrahydro-2H-pyran-2-carbonyl)piperazin-1-yl)pyridin-3-yl)methanesulfonamide]	
